Measured values reported in US8497298B2, “Use of benzo-fused heterocycle sulfamide derivatives for lowering lipids and lowering blood glucose levels” (Janssen Pharmaceutica NV, priority 2005, dated 2013).

Columns and labels:
db/db mice [1] = assay: Diabetic db/db Mouse In Vivo Assay (Example 13); settings: female db/db mice, A300 mg/kg oral gavage once daily
From the text: Db/db mice are known in the art to be susceptible to Type II diabetes (Sharma K, McCue P, Dunn S R. Am J Physiol Renal Physiol. 2003 June;284(6):F1138-44). The Db/db mice are also known in the art to be a useful model for dylipidemia.
Female db/db mice (C57BL/6J-Lep^db/db, Jackson Laboratories, Bar Harbor, Me., USA) were received at 8 weeks of age and single-housed and fed with regular chow diet. Blood was collected by tail puncture and glucose was monitored with a glucometer (OneTouch Basic, Lifescan, Newtown, Pa.).
Mice at 10 weeks of age were randomized into treatment groups based on glucose values (first criterion, average of 250 mg/dl) and body weight (second criterion, average of 37 gram). The mice were orally gavaged once daily (0.2 ml at 1500-1700 hour) with vehicle control (0.5% methylcellulose, pH7.4) and vehicle containing test compound (A300 mg/kg). On day 11, the mice were fasted for 4 hr during light cycle (food was removed 0600-1000 hour) and blood glucose levels were measured through tail puncture with a glucometer at 1000 hour. The mice were then anaesthetized with sodium pentobarbital (1 ml/kg, i.p, Sleepaway, Fort Dodge, Iowa) and blood was drawn via cardiac puncture and collected into heparinized tubes.
White adipose tissue (WAT) (retroperitoneal fat) and skeletal muscle (gastrocnemius and soleus muscle) were dissected and weighed. Plasma samples were obtained by centrifuge at 2,000 g for 15 minutes at 4° C. and subjected to measurement of insulin, HDL cholesterol and triglyceride.
Data shown below are expressed as the mean and standard error calculated using 9-10 mice per treatment group. The 2 tailed Student's t-Tests were used for statistic analysis. All animal studies complied with the guideline of the Institutional Animal Care and Use Committee.

db/db mice [2] = assay: Female db/db Mouse Assay, Study A: single dose part and dose response part (Example 14); type: in vivo
From the text: 0.5% Hydroxypropyl Methylcellulose (Methocel) used as vehicle/control.
Db/db mice are susceptible to Type 2 diabetes. […] All of the mice were quarantined for a period of one week before transfer to the animal procedure room. A drop of blood (about 2 microliters) was collected by tail puncture and glucose concentration was detected with a glucometer (OneTouch UltraSmart, Lifescan, Milpitas, Calif.). […] Animals were separated and single housed at least three days prior to the drug treatments to allow acclimation to the new surroundings.
In the second, dose response part of Study A, 48 mice were allocated into 4 treatment groups of 12 mice each.
The dosing volume was 5 mL/kg body weight (0.2 mL for 40 gram mice). The mice were fed ad lib throughout the study. A necropsy was completed 18 hours after last dosing.
Blood glucose levels were measured from blood collected through tail puncture using a glucometer at 1000 hour. The mice were anaesthetized with sodium pentobarbital (1 ml/kg, intraperitoneal [i.p.] injection, SleepAway, Fort Dodge, Iowa) and blood was drawn via cardiac puncture using 1 mL syringe and collected into heparinized tubes. White adipose tissues (WAT) (retroperitoneal and inguinal fat pads), brown adipose tissure (BAT) and skeletal muscles (gastrocnemius and soleus muscle) and stomach contents were dissected and weighed. Plasma samples were obtained by centrifuging whole blood at 2000˜3000 g for 10˜20 minutes at 4° C. and stored at −20° C. for further measurement of insulin, HDL, LDL, total cholesterol and triglyceride.
Plasma insulin concentrations were measured by in both studies using the appropriate rat/mouse insulin enzyme-linked immunosorbent assay (ELISA) kit (EZRMI-13K, LINCO Research, St. Charles, Mo.). Blood samples were diluted 1:4 in charcoal stripped mouse serum that was included in the ELISA kit. The rest of the procedure followed the manufacturers instruction. The total fluorescence was detected using an Orion 1 Microplate Luminometer (Berthold Detection Systems, Pforzheim, Germany).
According to manufacturers protocol, cholesterol measurement was an enzymatic method utilizing cholesterol esterase and cholesterol oxidase conversion followed by a Trinder endpoint; Elimination/catalase method was used for HDL measurement; an enzymatic method with a Trinder endpoint was used for triglyceride measurement.
Data from both parts of the Study (single dose and dose response) was analyzed using the standard two-tailed Student's t-test and are expressed below as means and standard errors.

[3] = dose response part, 10 mg/kg, plasma
[4] = dose response part, 30 mg/kg, plasma
[5] = dose response part, 100 mg/kg, plasma
[6] = single dose part, Compound #8 300 mg/kg
[7] = single dose part, Compound #8 300 mg/kg oral once daily 10 days
[8] = single dose part, Compound #8 300 mg/kg, plasma

With NS(=O)(=O)NC[C@H]1COc2cc(Cl)ccc2O1 [Compound #8, (2S)-(−)-N-(6-Chloro-2,3-dihydro-benzo[1,4]dioxin-2-ylmethyl)-sulfamide] the “Retroperitoneal Fat Weight” value (db/db mice [1]; day 11) was 1.31 ± 0.07 g, the “Skeletal Muscle Weight” value (db/db mice [1]; day 11) was 0.154 ± 0.00 g and the “Blood Glucose” value (db/db mice [1]; day 11, fasted 4 hr) was 210 ± 27 mg/dL. For the same molecule, the “HDL Cholesterol” value (db/db mice [1]; day 11, plasma) was 55.9 ± 3.7 mg/dL, the Triglycerides (db/db mice [1]; day 11, plasma) was 98 ± 41 mg/dL and the “fat to lean mass ratio” value (db/db mice [1]; p<0.01 vs vehicle 27.9±1.4) was 23.4±0.9. For the same molecule, the “Insulin levels versus vehicle treated animals” value (db/db mice [1]; plasma) was “not statistically different”, the “total cholesterol concentrations elevated relative to vehicle” value (db/db mice [2]; Compound #8, dose not given) was 18.7% and the “Brown Adipose Tissue” value (db/db mice [2]; dose response part, 10 mg/kg) was 0.23 ± 0.01 g. The Inguinal fat (db/db mice [2]; dose response part, 10 mg/kg) was 2.15 ± 0.11 g, the Insulin (db/db mice [2]; dose response part, 10 mg/kg) was 11.9 ± 2.5 ng/mL and the Muscle (db/db mice [2]; dose response part, 10 mg/kg) was 0.140 ± 0.004 g. The “Ratio (Triglyceride to HDL)” value (db/db mice [2]; dose response part, 10 mg/kg) was 3.5 ± 0.3, the “Ratio (fat/muscle)” value (db/db mice [2]; dose response part, 10 mg/kg) was 25.9 ± 0.8 and the Retroperitoneal fat (db/db mice [2]; dose response part, 10 mg/kg) was 1.47 ± 0.04 g. For the same molecule, the Glucose (db/db mice [2]; dose response part, 10 mg/kg oral once daily 10 days) was 420 ± 10 mg/dL, the Cholesterol (db/db mice [2]; [3]) was 92 ± 3 mg/dL and the HDL (db/db mice [2]; [3]) was 47.1 ± 1.5 mg/dL. For the same molecule, the Triglyceride (db/db mice [2]; [3]) was 166 ± 13 mg/dL, the “Brown Adipose Tissue” value (db/db mice [2]; dose response part, 30 mg/kg) was 0.22 ± 0.01 g and the Inguinal fat (db/db mice [2]; dose response part, 30 mg/kg) was 1.97 ± 0.07 g. For the same molecule, the Insulin (db/db mice [2]; dose response part, 30 mg/kg) was 10.8 ± 2.9 ng/mL, the Muscle (db/db mice [2]; dose response part, 30 mg/kg) was 0.141 ± 0.003 g and the “Ratio (Triglyceride to HDL)” value (db/db mice [2]; dose response part, 30 mg/kg) was 4.1 ± 0.3. The “Ratio (fat/muscle)” value (db/db mice [2]; dose response part, 30 mg/kg) was 24.5 ± 0.5, the Retroperitoneal fat (db/db mice [2]; dose response part, 30 mg/kg) was 1.49 ± 0.07 g and the Glucose (db/db mice [2]; dose response part, 30 mg/kg oral once daily 10 days) was 439 ± 13 mg/dL. It also gave a Cholesterol (db/db mice [2]; [4]) of 95 ± 2 mg/dL, an HDL (db/db mice [2]; [4]) of 49.2 ± 1.7 mg/dL and a Triglyceride (db/db mice [2]; [4]) of 202 ± 18 mg/dL. For the same molecule, the “Brown Adipose Tissue” value (db/db mice [2]; dose response part, 100 mg/kg) was 0.24 ± 0.00 g, the Inguinal fat (db/db mice [2]; dose response part, 100 mg/kg) was 2.05 ± 0.09 g and the Insulin (db/db mice [2]; dose response part, 100 mg/kg) was 3.9 ± 1.4 ng/mL. The Muscle (db/db mice [2]; dose response part, 100 mg/kg) was 0.140 ± 0.007 g, the “Ratio (Triglyceride to HDL)” value (db/db mice [2]; dose response part, 100 mg/kg) was 3.3 ± 0.3 and the “Ratio (fat/muscle)” value (db/db mice [2]; dose response part, 100 mg/kg) was 26.3 ± 1.0. The Retroperitoneal fat (db/db mice [2]; dose response part, 100 mg/kg) was 1.55 ± 0.11 g, the “hyperinsulinemia decreased compared to vehicle treated mice” value (db/db mice [2]; dose response part, 100 mg/kg) was 63.5% and the Glucose (db/db mice [2]; dose response part, 100 mg/kg oral once daily 10 days) was 394 ± 17 mg/dL. The stomach content (db/db mice [2]; dose response part, 100 mg/kg, control 0.35±0.03 g, p<0.05) was 0.51 ± 0.04 g, the Cholesterol (db/db mice [2]; [5]) was 102 ± 3 mg/dL and the HDL (db/db mice [2]; [5]) was 51.7 ± 1.7 mg/dL. For the same molecule, the Triglyceride (db/db mice [2]; [5]) was 169 ± 10 mg/dL, the “food intake and body weight” value (db/db mice [2]; dose response part, 10, 30 and 100 mg/kg groups) was “no differences” and the “Glucose levels reduced compared to vehicle treated mice” value (db/db mice [2]; single dose part, 300 mg/kg) was 50%. The “HDL elevated compared to vehicle” value (db/db mice [2]; single dose part, 300 mg/kg) was 22.8%, the “plasma triglyceride decreased compared to vehicle” value (db/db mice [2]; single dose part, 300 mg/kg) was 39.4% and the “ratio of triglyceride to HDL reduced” value (db/db mice [2]; single dose part, 300 mg/kg) was 50.2%. The “stomach content weights versus vehicle at the end of the experiment” value (db/db mice [2]; single dose part, 300 mg/kg) was “two times greater”, the “Brown Adipose Tissue” value (db/db mice [2]; [6]) was 0.25 ± 0.01 g and the “Final weight Body weight” value (db/db mice [2]; [6]) was 39 ± 0.9 g. The “Final weight Stomach contents” value (db/db mice [2]; [6]) was 0.52 ± 0.07 g, the Inguinal fat (db/db mice [2]; [6]) was 2.28 ± 0.11 g and the Muscle (db/db mice [2]; [6]) was 0.154 ± 0.00 g. The Retroperitoneal fat (db/db mice [2]; [6]) was 1.31 ± 0.07 g, the “Total chow consumption Day 1-3” value (db/db mice [2]; [6]) was 14 ± 0.9 g and the “Total chow consumption Day 4-6” value (db/db mice [2]; [6]) was 14.9 ± 1.1 g. For the same molecule, the “Total chow consumption Day 7-9” value (db/db mice [2]; [6]) was 16 ± 0.6 g, the Glucose (db/db mice [2]; [7]) was 210 ± 27 mg/dL and the Insulin (db/db mice [2]; [7]) was 16.0 ± 2.5 ng/mL. It also gave a Cholesterol (db/db mice [2]; [8]) of 108 ± 3 mg/dL, an HDL (db/db mice [2]; [8]) of 55.9 ± 1.2 mg/dL and an LDL (db/db mice [2]; [8]) of 3.4 ± 0.2 mg/dL. The “Ratio (Triglyceride to HDL)” value (db/db mice [2]; [8]) was 1.8 ± 0.3, the Triglyceride (db/db mice [2]; [8]) was 98 ± 13 mg/dL and the “Ratio (fat/muscle)” value (db/db mice [2]; single dose part, Compound #8 300 mg/kg, total inguinal and retroperitoneal fat/muscle weight) was 23.4 ± 0.9.
